These results are taken from patent US7666868B2, “N-sulphonylpyrroles and their use as histone deacetylase inhibitors” (4SC AG, priority 2005, dated 2010).

The subject of data set [1] is histone H3 acetylation (lysine 9+14) in HeLa cervical carcinoma cells. Put plainly: Cellular histone H3 acetylation assay. The following applies: Homo sapiens, 24 h incubation with compound, read-out: EC50 (histone H3 acetylating cellular potency). Format: cell-based. The source says: To assess the cellular efficacy of an histone deactylase inhibitor in vitro, an assay is set up in black clear-bottom 96-well plates and optimized for use on the Cellomics “ArrayScan II” platform for a quantitative calculation of histone acetylation. The protocol uses a polyclonal rabbit antibody, specifically binding to acetylated lysine 9+14 of human histone H3 on fixed cells with an Alexa Fluor 488 labeled goat ant rabbit-IgG used for counterstaining (modified from Braunger et al. MCR annual conference 2003, Abstract 4556).
5×10^3 HeLa cervical carcinoma cells/well (ATCC CCL-2) in 200 μl Dulbecco's modified Eagle's medium (DMEM) containing 10% fetal calf serum are seeded at day 1 in Packard view plates and incubated for 24 h under standard cell culture conditions. On day 2, 2 μl test compound (100× final concentration) is added and incubation continued for further 24 h. On day 3, the culture medium is discarded and attached cells fixed for 15 min at room temperature by addition of 100 μl fixation buffer (3.7% v:v formaldehyde in phosphate buffered saline/PBS). After discarding the fixation buffer and one wash with PBS, cells are permeabilized at room temperature by addition of 100 μl/well permeabilization buffer (30.8 mM NaCl, 0.54 mM Na2HPO4, 0.31 mM KH2PO4, 5% v:v Triton X-100) for 15 min at room temperature. After discarding the permeabilization buffer and washing twice with 100 μl/well blocking solution (PBS with 0.05% v:v Tween 20 and 5% w:v milk powder) at room temperature, the 1st antibody (anti-K9+14 histone H3 antibody, Calbiochem No. 382158) in blocking solution (50 μl/well) is added. After incubation for 1 h at 37° C., the wells are washed twice at room temperature with 100 μl/well blocking solution before addition of the 2nd antibody (goat-anti-rabbit Alexa Fluor 488; MoBiTec No. A-11008) in blocking solution (50 μl/well). After further incubation for 1 h at 37° C., wells are washed twice with 100 μl/well blocking solution room temperature. Finally, 100 d/well PBS are added and image analysis performed on the Cellomics “ArrayScan II” platform. For calculation of EC50 values, the nuclear fluorescence in cells treated with and without a reference HDAC inhibitor (eg NVP-LBH-589) are taken as a positive and negative control. For EC50 determination, the percentage of positive cells is determined and EC50 calculation done from concentration-effect curves by means of non-linear regression.

As usually defined, the EC50 is the concentration needed to bring the measured effect to its halfway point. As usually defined, the melting point is the temperature, or range, at which the solid turns liquid. Compound `O=C(/C=C/c1ccn(S(=O)(=O)c2cc(-c3ccccc3)ccc2OCCCN2CCOCC2)c1)NO` [Compound 38, (E)-N-Hydroxy-3-{1-[4-(3-morpholin-4-yl-propoxy)-biphenyl-3-sulfonyl]-1H-pyrrol-3-yl}-acrylamide] gave a melting point of 167 to 172 °C. In data set [1], the EC50 fell in the range of 27 to 4400 nM. For `O=C(/C=C/c1ccn(S(=O)(=O)c2cc(-c3ccccc3)ccc2CCCN2CCOCC2)c1)NO` [Compound 45, (E)-N-Hydroxy-3-{1-[4-(3-morpholin-4-yl-propyl)-biphenyl-3-sulfonyl]-1H-pyrrol-3-yl}-acrylamide] the same measures were 215 to 217 °C and 27 to 4400 nM. The compound `Nc1ccccc1NC(=O)/C=C/c1ccn(S(=O)(=O)C2(CN3CCOCC3)C=CC(c3ccccc3)=CC2)c1` (centres unmarked) [Compound 107, (E)-N-(2-Amino-phenyl)-3-[1-(4-morpholin-4-ylmethyl-biphenyl-4-sulfonyl)-1H-pyrrol-3-yl]-acrylamide] gave a melting point of 196 to 201 °C. `O=C(/C=C/c1ccn(S(=O)(=O)c2cc(-c3ccccc3)ccc2CNC2CC2)c1)NO` [Compound 63, (E)-3-[1-(4-Cyclopropylaminomethyl-biphenyl-3-sulfonyl)-1H-pyrrol-3-yl]-N-hydroxy-acrylamide] had a melting point of 118 to 119 °C. Besides, in data set [1], the EC50 was 27 to 4400 nM. `Cn1cc(-c2cccc(S(=O)(=O)n3ccc(/C=C/C(=O)Nc4ccccc4N)c3)c2)cn1` [Compound 15, (E)-N-(2-Amino-phenyl)-3-{1-[3-(1-methyl-1H-pyrazol-4-yl)-benzenesulfonyl]-1H-pyrrol-3-yl}-acrylamide] registered a melting point of 193 to 197 °C.
